Assay results published in patent publication US12083115B2, “Methods for treating neurological symptoms associated with lysosomal storage diseases” (Genzyme Corporation, priority 2020, dated 2024).

Assays:
Type in all cases: in vivo, human
[1] = test system: adult patients with Gaucher disease Type 3; assay: Clinical study in GD-3 patients: ataxia, SARA scale; set-up: key to SARA Cumulative Score, Average Score excluding Patient 4 / SARA Cumulative Score / SARA Cumulative Score, Average Score: SARA, eight ataxia attributes summed, 0-40 scale; details: for SARA Cumulative Score: 15 mg/day + imiglucerase; for SARA Cumulative Score, Average Score: screening 2.83
[2] = test system: adult patients with Gaucher disease Type 3; assay: as above; set-up: key to SARA Cumulative Score, Average Score excluding Patient 4 / SARA Cumulative Score: SARA, eight ataxia attributes summed, 0-40 scale; key to mean improvement in SARA score: change in SARA score (0-40 scale)
Experimental: (§1) The endpoint assessments are related to safety, CSF biomarkers, pharmacokinetics/pharmacodynamics, systemic disease, and neuroimaging and neurological function (CNS/neurological manifestations).
(§2) During the study patients were evaluated for safety and tolerability, CSF and plasma biomarkers (glucosylceramide, GL-1; glucosylsphingosine, lyso-GL1), pharmacokinetics, markers for systemic disease (spleen and liver volume measured by magnetic resonance imaging (MRI), platelet count, hemoglobin levels), indicia of interstitial lung disease (high resolution pulmonary computed tomography (CT)), and horizontal saccadic eye movement. In addition, exploratory biomarkers were quantified in CSF of GD3 patients: ceramide (the precursor of GL-1), chitotriosidase (CHITO), GM3, and GPNMB. Symptoms of ataxia were measured using the SARA scale, neurological symptoms were measured using the trail making test, and functional MRI was used to assess neural connectivity in the brain.
The degree of ataxia at baseline and throughout the study was evaluated by the Scale for Assessment and Rating of Ataxia (SARA; Schmitz-Hubsch et al. [2006]), which assesses eight distinct attributes of cerebellar ataxia on a scale of 0-40. The eight attributes are gait, stance, sitting, speech disturbance, finger chase, nose-finger test, fast alternate hand movement, and heel-shin slide. SARA ataxia scoring results for all six patients is presented in the chart below: […]

[3] = Clinical study in GD-3 patients (LEAP): Compound 2 concentrations in plasma and CSF
Source text: as §1
Patients 18 years of age or older with a clinical diagnosis of GD3 and documented deficiency of acid beta-glucosidase activity having received treatment with ERT for at least 3 years and with imiglucerase (Cerezyme) at a stable monthly dose for at least 6 months prior to enrollment were included in the study. Patients must have reached the following GD therapeutic goals: hemoglobin level of ≥11.0 g/dL for females and ≥12.0 g/dL for males; platelet count 100 000/mm^3; spleen volume <10 multiples of normal (MN), or total splenectomy (provided the splenectomy occurred ≥3 years prior to randomization); liver volume <1.5 MN; and no bone crisis and free of symptomatic bone disease such as bone pain attributable to osteonecrosis and/or pathological fractures within the last year. Patients must have GD3 featuring oculomotor apraxia (supranuclear gaze palsy) characterized by a horizontal saccade abnormality.
as §2
It is believed that this is due to either compliance or dosing errors, and therefore, analysis is repeated without Patient 5's Week 26 and 52 data included.

[4] = Study 1 Part 2: PK with and without a high-fat meal; details: 5 mg single dose
Source text: Study 1 was a 2-part single-center trial in healthy adult male volunteers.
After a 7-day washout period, participants were crossed over to the other condition.

[5] = plasma, Day 1, N = 11, 15 mg/day + imiglucerase

In the case of `CC(C)(NC(=O)O[C@@H]1CN2CCC1CC2)c1csc(-c2ccc(F)cc2)n1` [Compound 2, (S)-quinuclidin-3-yl 2-(2-(4-fluorophenyl)thiazol-4-yl)propan-2-ylcarbamate], the “patients with positive correlation between reduction in CSF GL-1 and SARA score” value ([1]; 52 weeks, 11 patients) is reported as 8 of 11, the “patients showing improvements in ataxia” value ([1]; 52 weeks, N = 6, 15 mg/day + imiglucerase) is reported as 5 of 6 and the “SARA Cumulative Score” value ([1]; Patient 1, Week 26, screening 3.0) is reported as 1.0. The “SARA Cumulative Score” value ([1]; Patient 2, Week 26, screening 3.0) was 2.0, the “SARA Cumulative Score” value ([1]; Patient 2, Week 52, screening 3.0) was 1.5 and the “SARA Cumulative Score” value ([1]; Patient 3, Week 26, screening 3.5) was 0.0. The “SARA Cumulative Score” value ([1]; Patient 3, Week 52, screening 3.5) was 0.0, the SARA stance score ([1]; Patient 4, Week 26 (baseline 1)) was 1 and the “SARA Cumulative Score” value ([1]; Patient 4, Week 26, screening 3.0) was 5.0. The SARA stance score ([1]; Patient 4, Week 52 (baseline 1; left knee pain, injured toe)) was 5, the “SARA Cumulative Score” value ([1]; Patient 6, Week 26, screening 4.0) was 2.0 and the “SARA Cumulative Score” value ([1]; Patient 6, Week 52, screening 4.0) was 3.0. For the same molecule, the “SARA Cumulative Score” value ([1]; Patient 7, Week 26, screening 5.5) was 7.5, the “SARA Cumulative Score” value ([1]; Patient 7, Week 52, screening 5.5) was 5.0 and the “SARA Cumulative Score” value ([1]; Patient 8, Week 26, screening 2.0) was 0.5. For the same molecule, the “SARA Cumulative Score” value ([1]; Patient 8, Week 52, screening 2.0) was 0, the “SARA Cumulative Score” value ([1]; Patient 9, Week 26, screening 0.0) was 0.0 and the “SARA Cumulative Score” value ([1]; Patient 9, Week 52, screening 0.0) was 0.0. The “SARA Cumulative Score” value ([1]; Patient 10, Week 26, screening 2.0) was 2.0, the “SARA Cumulative Score” value ([1]; Patient 10, Week 52, screening 2.0) was 1.0 and the “SARA Cumulative Score” value ([1]; Patient 11, Week 26, screening 3.0) was 3.0. For the same molecule, the “SARA Cumulative Score” value ([1]; Patient 11, Week 52, screening 3.0) was 2.0, the “SARA Cumulative Score, Average Score” value ([1]; Patients 1-6, Week 26) was 1.67 and the “SARA Cumulative Score, Average Score” value ([1]; Patients 1-6, Week 52) was 2.00. For the same molecule, the “SARA Cumulative Score, Average Score excluding Patient 4” value ([1]; Week 26, screening 2.80) was 1.00, the “patients exhibiting an improvement in ataxia” value ([1]; Week 52, Excluding Patient 5) was 4 out of 5 and the “patients exhibiting an improvement in ataxia” value ([1]; Week 52, five new patients excluding Patient 9) was 4 out of 4. The “gait on videotaped straight-line walk” value ([1]; two patients, week 26 and week 52 compared to baseline) was “steadier, better coordinated, and faster gait”, the “mean SARA Score” value ([2]; Excluding Patient 4, by Week 26, further slightly improved by Week 52) was “significantly decreased” and the “SARA Cumulative Score” value ([2]; Patient 1, Week 52, screening 3.0, 15 mg/day + imiglucerase) was 0.0. The “SARA Cumulative Score” value ([2]; Patient 4, Week 52, screening 3.0, 15 mg/day + imiglucerase) was 4.5, the “SARA Cumulative Score” value ([2]; Patient 5 (low Compound 2 exposure), Week 26, screening 0.5) was 0.0 and the “SARA Cumulative Score” value ([2]; Patient 5 (low Compound 2 exposure), Week 52, screening 0.5) was 0.0. The “mean improvement in SARA score” value ([2]; Week 52, Excluding Patient 5 (SD=3.2)) was −0.9, the “SARA Cumulative Score, Average Score excluding Patient 4” value ([2]; Week 52, screening 2.80) was 0.90 and the “Concentration 2-4 hours post dose (mean ± SD)” value ([3]; CSF, Day 1, N = 6, 15 mg/day + imiglucerase) was “<LLOQ”. The “Concentration 2-4 hours post dose (mean ± SD)” value ([3]; CSF, Week 4, N = 6, 15 mg/day + imiglucerase) was 4.56 ± 1.20 ng/mL, the “Concentration 2-4 hours post dose (mean ± SD)” value ([3]; CSF, Week 4, N = 10 (Patient 5 excluded), 15 mg/day + imiglucerase) was 6.63 ± 2.42 ng/mL and the “Concentration 2-4 hours post dose” value ([3]; CSF, Week 4, Patient 5 Only) was 3.05 ng/mL. For the same molecule, the “Concentration 2-4 hours post dose (mean)” value ([3]; CSF, Week 26, Excluding Patient 5, 15 mg/day + imiglucerase) was 6.13 ng/mL, the “Concentration 2-4 hours post dose (mean ± SD)” value ([3]; CSF, Week 26, N = 6, 15 mg/day + imiglucerase) was 5.26 ± 2.49 ng/mL and the “Concentration 2-4 hours post dose (mean ± SD)” value ([3]; CSF, Week 26, N = 8 (Patient 5 excluded), 15 mg/day + imiglucerase) was 6.77 ± 1.96 ng/mL. For the same molecule, the “Concentration 2-4 hours post dose” value ([3]; CSF, Week 26, Patient 5 Only) was 1.77 ng/mL, the “Concentration 2-4 hours post dose (mean)” value ([3]; CSF, Week 52, Excluding Patient 5, 15 mg/day + imiglucerase) was 5.32 ng/mL and the “Concentration 2-4 hours post dose (mean ± SD)” value ([3]; CSF, Week 52, N = 6, 15 mg/day + imiglucerase) was 4.43 ± 3.23 ng/mL. For the same molecule, the “Concentration 2-4 hours post dose (mean ± SD)” value ([3]; CSF, Week 52, N = 10 (Patient 5 excluded), 15 mg/day + imiglucerase) was 6.14 ± 3.44 ng/mL, the “Concentration 2-4 hours post dose” value ([3]; CSF, Week 52, Patient 5 Only) was “<LLOQ” and the “steady state concentration reached in plasma and CSF” value ([3]; GD3 patients, 15 mg/day + imiglucerase) was ≤ 4 Week. For the same molecule, the “plasma and CSF concentrations under co-treatment with CYP3A4 inducer rifampicin” value ([3]; Patient 1, 52-week measurement, rifampicin Week 39 to Week 51) was “significant drop in plasma and CSF concentrations”, the “lower concentrations of Compound 2 in plasma and CSF” value ([3]; Patient 5, Week 26 (compliance or dosing errors believed)) was “about 50%” and the “concentrations of Compound 2 in plasma and CSF” value ([3]; Patient 5, Week 52) was “undetectable”. For the same molecule, the “Concentration 2-4 hours post dose (mean ± SD)” value ([3]; Plasma, Week 4, N = 10 (Patient 5 excluded), 15 mg/day + imiglucerase) was 116 ± 48.1 ng/mL, the “Concentration 2-4 hours post dose” value ([3]; Plasma, Week 4, Patient 5 Only) was 102 ng/mL and the “Concentration 2-4 hours post dose (mean ± SD)” value ([3]; Plasma, Week 26, N = 10 (Patient 5 excluded), 15 mg/day + imiglucerase) was 120 ± 40.1 ng/mL. The “Concentration 2-4 hours post dose” value ([3]; Plasma, Week 26, Patient 5 Only) was 53.3 ng/mL, the “Concentration 2-4 hours post dose (mean ± SD)” value ([3]; Plasma, Week 52, N = 10 (Patient 5 excluded), 15 mg/day + imiglucerase) was 114 ± 65.8 ng/mL and the “Concentration 2-4 hours post dose” value ([3]; Plasma, Week 52, Patient 5 Only) was “<LLOQ”. For the same molecule, the “crossing of the blood-brain barrier” value ([3]; from plasma and CSF concentrations, N = 6, 15 mg/day + imiglucerase) was “effectively cross the blood-brain barrier in all patients”, the “Concentration 2-4 hours post dose (mean ± SD)” value ([3]; plasma, Day 1, N = 6, 15 mg/day + imiglucerase) was 39.7 ± 12.6 ng/mL and the “AUC0-24 (mean ± SD)” value [3, 5] was 851 ± 282 ng·h/mL. For the same molecule, the “Cmax (mean ± SD)” value [3, 5] was 58.1 ± 26.4 ng/mL, the “Concentration 2-4 hours post dose (mean ± SD)” value ([3]; plasma, Week 4, N = 6, 15 mg/day + imiglucerase) was 92.3 ± 36.4 ng/mL and the “Concentration 2-4 hours post dose (mean)” value ([3]; plasma, Week 26, Excluding Patient 5, 15 mg/day + imiglucerase) was 112 ng/mL. For the same molecule, the “Concentration 2-4 hours post dose (mean ± SD)” value ([3]; plasma, Week 26, N = 6, 15 mg/day + imiglucerase) was 102.0 ± 49.5 ng/mL, the “Concentration 2-4 hours post dose (mean)” value ([3]; plasma, Week 52, Excluding Patient 5, 15 mg/day + imiglucerase) was 84 ng/mL and the “Concentration 2-4 hours post dose (mean ± SD)” value ([3]; plasma, Week 52, N = 6, 15 mg/day + imiglucerase) was 69.8 ± 58.3 ng/mL. For the same molecule, the “effect of a high-fat meal on Compound 2 exposure” value ([4]; high-fat meal compared with fasting) was “no effect” and the Tmax ([4]; male, human, plasma, oral, whether fed or fasting, read-out: Median tmax) was 6 h.
